Assay results reported in US12479878B2, “Crystallization of 2′-FL” (Glycom A/S, priority 2020, dated 2025).

What was measured:
Assay type in all cases: physicochemical
[1] = Pressure filtration of crystallization slurry (overall filtration rate); conditions: for filtration rate: 75 ml slurry pressure filtered at ΔP=1 bar, polypropylene filter cloth pore size about 3 μm, filtration area 13 cm^2, filtrate volume/(time·filter area); for filterability improvement relative to prior art: relative to WO 2016/095924 example 2 slurry
Experimental: A sample of the crystallization slurry (75 ml) after completing the crystallization from examples 1-3 above, respectively, and from the prior art (according to WO 2016/095924 example 2, with the difference that the procedure was conducted at 35° C. instead of room temperature and the concentrated syrup was of 62° Bx (140.2 g; containing 48.8 wt % of 2′-FL, 1.3 wt % of lactose and 5.4 wt % of DFL)) was collected and pressure filtered at ΔP=1 bar using a polypropylene filter cloth with a pore size of about 3 μm and a filtration area of 13 cm^2, and the time until the beginning of the liquid-gas mass transfer was measured. The filterability of the slurries was compared by calculating an overall filtration rate according to the following equation: filtrate volume [cm^3]/(time [sec]·filter area [cm^2]).

[2] = Water content of dried crystal powder by Karl-Fischer titration; conditions: dried crystals
Experimental: (§1) The water content of dried crystal powder was measured by Karl-Fischer titration. Residual AcOH content was measured using Megazyme K-ACETRM 07/12.

[3] = Residual AcOH content (Megazyme K-ACETRM 07/12); conditions: dried crystals
Experimental: as §1

[4] = Loss on drying of wet filter cake; conditions: for LoD relative to prior art: relative to WO 2016/095924 example 2 filter cake
Experimental: A sample of the slurry (75 ml) was collected and pressure filtered at 1 bar. Another sample of the slurry (75 ml) was collected, pressure filtered at 1 bar and the filter cake was washed with acetic acid (28 g). The washed and the unwashed solid wet filter cakes were dried overnight at 65° C. and 50 mbar generating loss on drying (LoD) of 17.3% and 23.2 respectively. The concentrations of 2′-FL and other impurities in the mother liquor as well as dried solids were assayed via HPLC. The unwashed dried crystalline material contained 95.3% of 2′-FL and yielded 81.5% of crystalline 2′-FL polymorph II, while the purity of the washed filter cake increased to 97.0%.
Then the filtration was continued for 60 sec. The so-obtained solid wet filter cake was dried overnight (14 hours) at 65° C. and 50 mbar, and loss of drying was determined (see data in the table below).

[5] = unwashed solid wet filter cake dried overnight (14 hours) at 65° C. and 50 mbar
[6] = filter cake washed with acetic acid, dried overnight at 65° C. and 50 mbar

| Compound | filtration rate [1] [cm/s] | filterability improvement relative to prior art [1] [x] | H2O content [2] [wt %] | AcOH content [3] [wt %] | LoD relative to prior art [4] | LoD (loss on drying) [4, 5] [%] | LoD (loss on drying) [4, 6] [%] |
| --- | --- | --- | --- | --- | --- | --- | --- |
| C[C@@H]1OC(O[C@H]2[C@H](O[C@H]3[C@H](O)[C@@H](O)C(O)O[C@@H]3CO)O[C@H](CO)[C@H](O)[C@@H]2O)[C@@H](O)[C@H](O)[C@@H]1O (single isomer, unassigned) [Example 2, 2′-O-fucosyllactose] | 0.62 | 9.78 | 0.05 | 0.36 | 0.46-fold fold lower | 24.7 |  |
| C[C@@H]1OC(O[C@H]2[C@H](O[C@H]3[C@H](O)[C@@H](O)C(O)O[C@@H]3CO)O[C@H](CO)[C@H](O)[C@@H]2O)[C@@H](O)[C@H](O)[C@@H]1O (single isomer, unassigned) [Example 3, 2′-O-fucosyllactose] | 0.16 | 2.57 |  | 0.11 | 0.42-fold fold lower | 22.5 | 16.1 |
| C[C@@H]1OC(O[C@H]2[C@H](O[C@H]3[C@H](O)[C@@H](O)C(O)O[C@@H]3CO)O[C@H](CO)[C@H](O)[C@@H]2O)[C@@H](O)[C@H](O)[C@@H]1O (single isomer, unassigned) [Example 4, 2′-O-fucosyllactose] |  |  |  |  |  | 48.5 |  |
| C[C@@H]1OC(O[C@H]2[C@H](O[C@H]3[C@H](O)[C@@H](O)C(O)O[C@@H]3CO)O[C@H](CO)[C@H](O)[C@@H]2O)[C@@H](O)[C@H](O)[C@@H]1O (single isomer, unassigned) [Example 1, 2′-O-fucosyllactose] | 0.39 | 6.12 | 0.06 | 0.15 | 0.44-fold fold lower | 23.2 | 17.3 |
| C[C@@H]1OC(O[C@H]2[C@H](O[C@H]3[C@H](O)[C@@H](O)C(O)O[C@@H]3CO)O[C@H](CO)[C@H](O)[C@@H]2O)[C@@H](O)[C@H](O)[C@@H]1O (stereo partly drawn) [WO 2016/095924, 2′-O-fucosyllactose, reference compound] | 0.064 |  | 0.63 | 0.58 |  | 52.9 |  |
